From patent publication US20140349329A1, “DENSITY ANALYSIS OF ORGANISMS BY MAGNETIC LEVITATION” (President and Fellows of Harvard College, priority 2011, published 2014)

Columns and labels:
Assay type in all cases: in vivo
[1] = tested on: embryos of Danio rerio (i.e., zebrafish); experiment: Development of zebrafish embryos levitated in paramagnetic medium
Experimental: To show the applicability of the present methodologies, two experiments using magnetic levitation ([…]) to quantify the change in density in different organisms are described. In particular, experiments were performed on C. elegans and embryos of Danio rerio (i.e., zebrafish). In these embodiments, the paramagnetic salt was chelated Mn•EDTA, and the osmolality of the paramagnetic medium was approximately isotonic with the species under study ( 300 mOsm/kg). The development of zebrafish was monitored over a period of 54 h in a solution of 100 mM Gd•DTPA and 150 mM Gd•DTPA with Percoll and a saline solution (FIG. 4). […] In these experiments, four zebrafish embryos (collected from one strain of fish) were placed into a paramagnetic medium containing Gd•DTPA, Percoll and saline buffer. For these experiments, polystyrene spheres were included as density controls. After 16 hours of monitoring development, the levitation medium was changed to one composed of a higher concentration of the gadolinium chelate.

[2] = tested on: C. elegans; experiment: Density of C. elegans by magnetic levitation (MagLev) after exposure to drug; settings: worms treated with 6 mM aspirin (and Nile Red); medium 33% Percoll, 67% M9 buffer, 135 mM Mn•EDTA, 0.057 mM Ivermectin; T=23° C; N=10 worms; untreated 1.074±0.001
Experimental: To show the applicability of the present methodologies, two experiments using magnetic levitation (MagLev) to quantify the change in density in different organisms are described. In particular, experiments were performed on C. elegans and embryos of Danio rerio (i.e., zebrafish). In these embodiments, the paramagnetic salt was chelated Mn•EDTA, and the osmolality of the paramagnetic medium was approximately isotonic with the species under study (˜300 mOsm/kg).
In the experiments on C. elegans, the organism was exposed to aspirin, which results in an accumulation of lipids in the organism due to the sequestration of coenzyme A and the inhibition of fatty acid degradation. A density estimate of C. elegans exposed to aspirin and the density of control C. elegans that were not exposed to aspirin was determined via a Percoll gradient. […] Aspirin-treated C. elegans were centrifuged with a set of density marker beads in order to measure the density of different populations of C. elegans qualitatively and to establish the ranges of interest for quantitative density measurements using MagLev. […]
Using MagLev, the density of different populations of C. elegans was calculated with high precision. […] The magnetic levitation set up used to quantify the density of each worm involved placing the sample between two magnets. […]

[3] = tested on: C. elegans; experiment: Density estimate of C. elegans by centrifugation in a Percoll gradient with density marker beads; settings: qualitative
Experimental: In the experiments on C. elegans, the organism was exposed to aspirin, which results in an accumulation of lipids in the organism due to the sequestration of coenzyme A and the inhibition of fatty acid degradation. A density estimate of C. elegans exposed to aspirin and the density of control C. elegans that were not exposed to aspirin was determined via a Percoll gradient. The density of C. elegans changed upon exposure to aspirin with respect to an unexposed control group. Aspirin-treated C. elegans were centrifuged with a set of density marker beads in order to measure the density of different populations of C. elegans qualitatively and to establish the ranges of interest for quantitative density measurements using MagLev. A chelated form of manganese, ethylenediaminetetraacetic acid disodium manganese salt (Mn•EDTA), was used in the MagLev experiments as it is FDA approved for in vivo applications. The analysis of treated and untreated populations of C. elegans by MagLev employed concentrations of Mn•EDTA up to several hundred millimolar. C. elegans were motile within the paramagnetic solution and their swimming motion counteracted the balance of magnetic and gravitational forces within the MagLev device. Ivermectin was introduced into the paramagnetic solution to paralyze the organisms, this stabilized the organisms within the MagLev device.

| SMILES | development of embryos in the paramagnetic solution ([1]; 100 mM and 150 mM Gd•DTPA with Percoll and saline solution, monitored over 54 h) | morphology of the embryos after increase in concentration of the paramagnetic salt ([1]; medium changed after 16 hours to a higher concentration of the gadolinium chelate) | density of worms (MagLev) [2] [g/mL] | density of C. elegans upon exposure, with respect to unexposed control group [3] |
| --- | --- | --- | --- | --- |
| O=C([O-])CN(CCN(CC(=O)[O-])CC(=O)O)CCN(CC(=O)[O-])CC(=O)O.[Gd+3] [Gd•DTPA] | not affected | did not affect the morphology |  |  |
| CC(=O)Oc1ccccc1C(=O)O [aspirin] |  |  | 1.070 ± 0.002 | changed |
